Reference: patent US20110008279A1, “Methods and Compositions Relating to Adhesins as Adjuvants” (priority 2005, published 2011)
“And” between values parts separate entries of the source, which are not always exact repeats. Equal values may be shown once. “Also recorded” adds a separate entry of the source. Read-outs that look alike come from different tables or passages of the source.

Columns and labels:
human macrophages = experiment: Cytokine and chemokine secretion by human macrophages (Bio-Plex, IL-23 ELISA); type: cell-based
Method: The secretion of various immune mediators by isolated adherent human […] and macrophages was assayed with a Bio-Plex immune array. The pro-inflammatory cytokines IL-1α, IL-1β, TNFα, IFNγ, IL-6, the growth factor GM-CSF, the regulatory cytokines IL-12 (p40), IL-12 (p70), IL-10, as well as the chemokines IL-8, MCP-1, MIP-1α, IP-10, RANTES and EOTAXIN were assayed. The lymphocyte cytokines IL-2, IL-3, IL-4, IL-5, IL-7, IL-13 and IL-15 were also assayed. IL-23 expression was assayed using an ELISA assay. No secretion of IL-2, IL-3, IL-4, IL-5, IL-7, IL-13 or IL-15 was detected.
Peripheral monocytes and macrophages were stimulated with different concentrations of NadAΔ351-405, with or without LPS (0.2 μg/ml) and IFNγ (1000 U/ml), and with purified E. coli or N. meningitis OMV.

mo-DCs [1] = experiment: Alexa-NadAΔ351-405 binding to mo-DCs (flow cytometry, Scatchard analysis); design: species or system human; details: Scatchard plot
Method: In some cases, DCs primed or not with IFN-γ were treated at 37° C. for 1 hour with FCS/RPMI containing Bafilomycin A1 200 nM, incubated at 37° C. (in RPMI medium supplemented with 10% FBS and Bafilomycin A1) or 0° C. (in PBS supplemented with 10% FBS) for 3 hours with different concentrations (0.0375-5 μM) of Alexa-NadAΔ351-405 or NadA. Afterward cells were washed and suspended in FACS buffer for FACS analysis. Scatchard plots were constructed from data obtained from cell-associated mean fluorescence intensities due to cell-bound Alexa NadA were measured. The dissociation constant Kd and maximal binding capacities were then determined by Scatchard analyses.

human monocytes = experiment: Soluble mediator secretion by monocytes after 3 and 7 culture days, re-stimulated with LPS; type: cell-based
Method: The secretion of the main immune mediators by human monocytes, after 3 and 7 culture days following stimulation with NadAΔ351-405 or LPS, was tested with a Bioplex immune array after 24 hours incubation with LPS. Analysis was performed to test pro-inflammatory cytokine TNFα and IL6, regulatory cytokine IL-10 and IL-12(p70) and chemokine IL-8, MCP-1, MIP1-α, RANTES and […] secretion.

mo-DCs [2] = experiment: Cytokine and chemokine secretion by mo-DCs (Bio-Plex, ELISA); type: cell-based, human; details: for IL-12 released on co-stimulation with R-848: NadA 1.5 μM + R-848 1 μM
Method: Reagents used were tested for low endotoxin contamination using the Limulus amoebocyte assay (Sigma). Dendritic cells were generated from human peripheral blood mononuclear cells (PBMC) as described previously. In brief, PBMC were isolated from buffy coats of healthy donors by Ficoll-Paque Plus density gradient centrifugation (Amersham Pharmacia Biotech AB). Separate monocyte and T-cell fractions were obtained from PBMCs by Percoll density gradient centrifugation (Amersham Pharmacia Biotech AB). Residual T and B cells were removed from monocyte fraction by plastic adherence of 3×10^6 cells per well in 6-well plates (Costar) resulting in CD14^+ monocyte populations of >95% purity (determined by flow cytometry). DC were obtained by 6-d culture adherent monocytes in medium with 20 ng/ml IL-4 (5×10^6 units/mg, Peprotech) and 50 ng/ml GM-CSF (1×10^7 units/mg, Peprotech). Cytokines were added again on day 4 in RPMI-1640 medium supplemented with 10% FBS. Following this procedure more than 90% cells belonged to the immature DC phenotype (CD1a^+, HLADRlow, CD14^−, CD83^−, CD86^low, CD80^low). On day 5 cells were treated with nothing or with recombinant human IFN-γ (1000 U/ml) for 18 h before stimulation with NadA (0.0375-5 μM) or LPS (1 μg/ml). After 24 h cells were harvested and analysed. Culture supernatants were collected frozen in liquid nitrogen and conserved at −80° C. for cytokine analysis.
The antibody pairs used, directed against different non-competing epitopes of a given cytokine, were purchased from BioRad. Calibration curves from recombinant cytokine standard were prepared with four-fold dilution steps in RPMI-1640 medium containing 10% FBS. Assays were carried out in 96-well sterile pre-wetted filter plates at room temperature and protected from light. A mixture containing 5000 microspheres per cytokine was incubated together with standard or sample in a final volume of 50 μl for 30 min, under continuous shaking (300 rpm). After three washes by vacuum filtration with Bio-Plex washing buffer a cocktail of biotinylated antibodies diluted in Bio-Plex detection antibody diluent was added (25 μl to each well). After a 30 minutes incubation and washing, Streptavidin-PE diluted in Bio-Plex Assay buffer was added (50 μl per well). At the end of 10 minutes incubation under continuous shaking and after washing the fluorescence intensity of the beads was measured in a final volume of 125 μl of Bio-Plex assay buffer. Data analysis was done with Bio-Plex Manager software using a five-parametric-curve fitting. The detection limits were […].
IL12(p40) was measured by capture enzyme-linked immunosorbent assay (ELISA) with antibody pairs and cytokine standard purchased from Bender MedSystems. The concentrations of IL12(p40) in the cell-free supernatants were determined with ELISA kits according to the manufacturer's instructions. The detection limit of the assays was […].

[3] = after IFN-γ priming, 24 hours, NadAΔ351-405 1 μM

In the case of NadAΔ351-405, the EOTAXIN expression (human macrophages) is reported as “decrease”, the GM-CSF secretion (human macrophages) is reported as “No secretion” and the IL-1α production (human macrophages) is reported as “No IL-1α was produced”. For the same substance, the “IL-1β and TNFα production” value (human macrophages) was “produced only IL-1β and TNFα”, the IL-10 production (human macrophages) was “induced the production” and the IP-10 production (human macrophages; NadA alone) was “In neither monocytes nor macrophages was NadA alone able to produce IP-10”. The “IL-12(p40) expression” value (human macrophages; NadA alone, even in the presence of LPS and IFNγ) was “decrease”, the IL-6 secretion (human macrophages; together with IFNγ) was “increasing secretions” and the Kd (mo-DCs [1]; read-out: Kd1, high affinity binding sites) was 0.05 to 0.1 µM and 0.09 µM. The Kd (mo-DCs [1]; read-out: Kd2, low affinity binding sites) was 3 to 5 µM and 4 µM, the IL-6 production (human monocytes; after 3 days of culture, re-stimulated with LPS) was “greater production of IL-6 compared to LPS-treated cells” and the IL-10 production (human monocytes; cultured cells re-stimulated with LPS) was “able to induce IL-10 production”. For the same substance, the “IL-12 released on co-stimulation with R-848” value (mo-DCs [2]; after IFN-γ priming) was 45 ng/mL, the “IL-12 released on co-stimulation with R-848” value (mo-DCs [2]; no IFN-γ priming) was 2 ng/mL and the “increase of IL-12 release by IFN-γ priming” value (mo-DCs [2]; NadA + R-848) was 20 fold. The “IL-12p70 secretion, dose response” value (mo-DCs [2]; absence of IFN-γ priming, up to 5 μM NadA) was “undetected”, the “IL12-p40 maximal secretion relative to LPS” value (mo-DCs [2]; after IFN-γ priming) was ~2% and the “IL-12p70 secretion level relative to LPS” value (mo-DCs [2]; after IFN-γ priming) was < 2%. The “IL-12p70 secretion, dose response” value (mo-DCs [2]; after IFN-γ priming) was “reached a plateau below 1 μM NadA”, the “IL-6 production relative to maximal LPS production” value (mo-DCs [2]; [3]) was ~24% and the “TNFα production relative to maximal LPS production” value (mo-DCs [2]; [3]) was ~24%. The “NadA concentration at which IL-6, TNFα and IL-8 were evident” value (mo-DCs [2]; non-primed cells) was “higher than 1 μM”, the “IL-8 secretion relative to that induced by LPS” value (mo-DCs [2]; with and without IFN-γ priming) was ~24% and the IL-10 production (mo-DCs [2]; with or without IFN-γ priming, up to 5 μM NadA) was “Under no condition in this example was NadA able to induce IL-10 production; also recorded: undetectable”.
